{"source": "patent US11059808B2", "about": "“Substituted phenylpyrrolecarboxamides with therapeutic activity in HIV” (New York Blood Center, Inc., priority 2014, dated 2021);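 on IC50: endpoint is IC50 for inhibition of pseudovirus infection of TZM-bl cells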", "key": {"[1]": {"system": "TZM-bl cells", "assay": "Cytotoxicity in TZM-bl cells (XTT)", "format": "cell-based", "details": "XTT, 3 days", "description": "The cytotoxicity of test compounds in TZM-bl cells was also measured by the XTT method described previously^7. […] The soluble intracellular formazan was quantitated colorimetrically at 450 nm 4 h later. The percent of cytotoxicity and the CC50 values were calculated as above. (See Table 4)"}, "[2]": {"system": "HIV-1 pseudovirus pseudotyped with HXB2 Env", "assay": "microbe, parasite or virus in culture", "format": "cell-based", "details": "single cycle assay, TZM-bl cells infected with HIV-1 pseudovirus pseudotyped with HXB2 Env"}, "[3]": {"details": "Human immunodeficiency virus 1, HXB2, TZM-bl"}}, "data": [{"smiles": "Cc1nc(C(NC(=O)c2ccc(-c3ccc(Cl)cc3)[nH]2)C2CCCCN2)sc1CCO", "note": "(single isomer, unassigned) [Compound 29]", "values": [{"measurement": "CC50", "setting": "[1]", "result": "15.4 ± 0.3", "unit": "µM"}, {"measurement": "IC50", "setting": "[2]", "result": "5.9 ± 0.2", "unit": "µM"}]}, {"smiles": "Cc1nc(C(CNC(C)C)NC(=O)c2ccc(-c3ccc(Cl)cc3)[nH]2)sc1CO", "note": "(single isomer, unassigned) [Compound 107]", "values": [{"measurement": "CC50", "setting": "[1]", "result": "28.5 ± 3.5", "unit": "µM"}, {"measurement": "IC50", "setting": "[2]; [3]", "result": "4.2 ± 0.3", "unit": "µM"}]}, {"smiles": "Cc1ccc(-c2ccc(C(=O)NC(c3nc(C)c(CO)s3)C(C)(C)N)[nH]2)cc1F", "note": "(single isomer, unassigned) [Compound 114]", "values": [{"measurement": "CC50", "setting": "[1]", "result": "17.8 ± 0.3", "unit": "µM"}, {"measurement": "IC50", "setting": "[2]", "result": "0.34 ± 0.02", "unit": "µM"}]}, {"smiles": "Cc1nc(C(NC(=O)c2ccc(-c3ccc(Cl)c(F)c3)[nH]2)C(C)(C)N)sc1CO", "note": "(single isomer, unassigned) [Compound 112]", "values": [{"measurement": "CC50", "setting": "[1]", "result": "13.9 ± 0.7", "unit": "µM"}, {"measurement": "IC50", "setting": "[2]", "result": "0.27 ± 0.04", "unit": "µM"}]}, {"smiles": "Cc1nc(C(CN)NC(=O)c2ncc(-c3ccc(Cl)cc3)[nH]2)sc1CO", "note": "(single isomer, unassigned) [Compound 96]", "values": [{"measurement": "CC50", "setting": "[1]", "result": "> 51", "unit": "µM"}, {"measurement": "IC50", "setting": "[2]", "result": "~51", "unit": "µM"}]}, {"smiles": "Cc1ccc(-c2ccc(C(=O)NC(CCN)c3nc(C)c(CO)s3)[nH]2)cc1F", "note": "(single isomer, unassigned) [Compound 85]", "values": [{"measurement": "CC50", "setting": "[1]", "result": "43.8 ± 1.6", "unit": "µM"}, {"measurement": "IC50", "setting": "[2]", "result": "4.2 ± 1.7", "unit": "µM"}]}, {"smiles": "COc1cc(C(=O)NC(CN)c2nc(C)c(CO)s2)[nH]c1-c1ccc(Cl)cc1", "note": "(single isomer, unassigned) [Compound 106]", "values": [{"measurement": "CC50", "setting": "[1]", "result": "22.2 ± 2.5", "unit": "µM"}, {"measurement": "IC50", "setting": "[2]", "result": "12.4 ± 2.5", "unit": "µM"}]}, {"smiles": "CNc1cc(NC(=O)c2ccc(-c3ccc(F)c(Cl)c3)[nH]2)nc(NC(=N)N)n1", "note": "[Compound 53]", "values": [{"measurement": "CC50", "setting": "[1]", "result": "≥ 36", "unit": "µM"}]}, {"smiles": "Cc1ccc(-c2ccc(C(=O)NC(c3nc(C)c(CCO)s3)C3CCCCN3)[nH]2)cc1F", "note": "(single isomer, unassigned) [Compound 25]", "values": [{"measurement": "CC50", "setting": "[1]", "result": "15.3 ± 0.2", "unit": "µM"}, {"measurement": "IC50", "setting": "[2]", "result": "6.3 ± 0.3", "unit": "µM"}]}, {"smiles": "Cc1nc(C(NC(=O)c2ccc(-c3ccc(Cl)c(F)c3)[nH]2)C2CCCCN2)[nH]c1CO", "note": "(single isomer, unassigned) [Compound 36]", "values": [{"measurement": "CC50", "setting": "[1]", "result": "31.5 ± 0.2", "unit": "µM"}, {"measurement": "IC50", "setting": "[2]", "result": "16.2 ± 0.2", "unit": "µM"}]}, {"smiles": "CC(C)(N)C(NC(=O)c1ccc(-c2ccc(Cl)c(F)c2)[nH]1)c1ncc(CO)s1", "note": "(single isomer, unassigned) [Compound 124]", "values": [{"measurement": "CC50", "setting": "[1]", "result": "16.3 ± 0.6", "unit": "µM"}, {"measurement": "IC50", "setting": "[2]", "result": "0.46 ± 0.01", "unit": "µM"}]}, {"smiles": "Cc1ccc(-c2ccc(C(=O)NC(CN)c3ncc(CO)s3)[nH]2)cc1F", "note": "(single isomer, unassigned) [Compound 100]", "values": [{"measurement": "CC50", "setting": "[1]", "result": "39.2 ± 0.8", "unit": "µM"}]}, {"smiles": "CNCCC(NC(=O)c1ccc(-c2ccc(Cl)cc2)[nH]1)c1nc(C)c(CO)s1", "note": "(single isomer, unassigned) [Compound 83]", "values": [{"measurement": "CC50", "setting": "[1]", "result": "23 ± 0.6", "unit": "µM"}, {"measurement": "IC50", "setting": "[2]", "result": "1.7 ± 0.2", "unit": "µM"}]}, {"smiles": "NCC(NC(=O)c1ccc(-c2ccc(Cl)cc2)[nH]1)c1ncc(CO)s1", "note": "(single isomer, unassigned) [Compound 103]", "values": [{"measurement": "CC50", "setting": "[1]", "result": "37.1 ± 0.3", "unit": "µM"}, {"measurement": "IC50", "setting": "[2]; [3]", "result": "0.75 ± 0.2", "unit": "µM"}]}, {"smiles": "Cc1nc(C(NC(=O)c2ccc(-c3ccc(Cl)c(F)c3)[nH]2)C2CCCCN2)sc1CCO", "note": "(single isomer, unassigned) [Compound 27]", "values": [{"measurement": "CC50", "setting": "[1]", "result": "15.1 ± 0.2", "unit": "µM"}, {"measurement": "IC50", "setting": "[2]", "result": "8 ± 0.1", "unit": "µM"}]}, {"smiles": "CC(=O)NCC(NC(=O)c1ccc(-c2ccc(Cl)c(F)c2)[nH]1)c1nc(C)c(CO)s1", "note": "(single isomer, unassigned) [Compound 61]", "values": [{"measurement": "CC50", "setting": "[1]", "result": "> 44", "unit": "µM"}]}, {"smiles": "Cc1nc(C(CNC(=N)N)NC(=O)c2ccc(-c3ccc(Cl)c(F)c3)[nH]2)sc1CO", "note": "(single isomer, unassigned) [Compound 47]", "values": [{"measurement": "CC50", "setting": "[1]", "result": "> 36", "unit": "µM"}, {"measurement": "IC50", "setting": "[2]", "result": "≥ 20", "unit": "µM"}]}, {"smiles": "Cc1nc(C(CNC(=N)N)NC(=O)c2ccc(-c3ccc(Cl)cc3)[nH]2)sc1CO", "note": "(single isomer, unassigned) [Compound 46]", "values": [{"measurement": "CC50", "setting": "[1]", "result": "> 37", "unit": "µM"}, {"measurement": "IC50", "setting": "[2]", "result": "≥ 20", "unit": "µM"}]}, {"smiles": "COc1ccc(-c2ccc(C(=O)NC(CN)c3ncc(CO)s3)[nH]2)cc1OC", "note": "(single isomer, unassigned) [Compound 130]", "values": [{"measurement": "CC50", "setting": "[1]", "result": "> 74.5", "unit": "µM"}, {"measurement": "IC50", "setting": "[2]", "result": "> 74.5", "unit": "µM"}]}, {"smiles": "Cc1ccc(-c2ccc(C(=O)NC(c3nc(C)c(CO)s3)C3CCCCN3)[nH]2)cc1F", "note": "(single isomer, unassigned) [Compound 23]", "values": [{"measurement": "CC50", "setting": "[1]", "result": "≥ 36", "unit": "µM"}, {"measurement": "IC50", "setting": "[2]", "result": "3.8 ± 0.3", "unit": "µM"}]}, {"smiles": "Cc1nc(C(CCN)NC(=O)c2ccc(-c3ccc(Cl)cc3)[nH]2)sc1CO", "note": "(single isomer, unassigned) [Compound 89]", "values": [{"measurement": "CC50", "setting": "[1]", "result": "41 ± 1", "unit": "µM"}, {"measurement": "IC50", "setting": "[2]", "result": "4 ± 0.3", "unit": "µM"}]}, {"smiles": "Cc1cc(-c2ccc(Cl)cc2)[nH]c1C(=O)NC(CN)c1nc(C)c(CO)s1", "note": "(single isomer, unassigned) [Compound 69]", "values": [{"measurement": "CC50", "setting": "[1]", "result": "27.2 ± 0.8", "unit": "µM"}]}, {"smiles": "CNCCC(NC(=O)c1ccc(-c2ccc(Cl)c(F)c2)[nH]1)c1nc(C)c(CO)s1", "note": "(single isomer, unassigned) [Compound 81]", "values": [{"measurement": "CC50", "setting": "[1]", "result": "22 ± 0.6", "unit": "µM"}, {"measurement": "IC50", "setting": "[2]", "result": "1.5 ± 0.4", "unit": "µM"}]}, {"smiles": "Cc1nc(C(CCN)NC(=O)c2ccc(-c3ccc(Cl)c(F)c3)[nH]2)sc1CO", "note": "(single isomer, unassigned) [Compound 87]", "values": [{"measurement": "CC50", "setting": "[1]", "result": "35 ± 3", "unit": "µM"}, {"measurement": "IC50", "setting": "[2]", "result": "6.6 ± 2", "unit": "µM"}]}, {"smiles": "Cc1nc(C(CN)NC(=O)c2ccc(-c3ccc(Cl)cc3)[nH]2)sc1CO", "note": "(single isomer, unassigned) [Compound 40]", "values": [{"measurement": "CC50", "setting": "[1]", "result": "~40", "unit": "µM"}]}, {"smiles": "Cc1nc(C(CN)NC(=O)c2ccc(-c3ccc(Cl)c(F)c3)[nH]2)sc1CO", "note": "(single isomer, unassigned) [Compound 52]", "values": [{"measurement": "CC50", "setting": "[1]", "result": "50.5 ± 1.3", "unit": "µM"}]}]}
